The text below walks through data of patent US4745112A, “Oxadiazolylimidazobenzodiazepine, compositions, and method III” (A/S Ferrosan, priority 1985, dated 1988).

In assay [1] the test system is benzodiazepine receptors. Nature of the assay: In vivo inhibition of 3H-flunitrazepam binding to mouse forebrain membranes, test substances i.p. (Procedure 130). The conditions noted are these: 3H-flunitrazepam i.v., dose inhibiting 50% of specific forebrain binding. How it is done:
I. In vivo inhibition of ^3 H-flunitrazepam binding to mouse forebrain membranes by test substances administered intraperitoneally. (Procedure 130)
Twenty minutes after a dose of ^3 H-flunitrazepam (^3 H-FNM) (200 μCi/kg, i.v.) the amount of specific ^3 H-FNM binding to brain benzodiazepine receptors has reached its maximal value.
Suspensions of test substances (2 mg/ml) are prepared in 5% Duphasol-X* by sonification for 10 min using a Branson B15 microtip ultrasonifier (setting 7). Groups of three mice (female, NMR, 18-22 gram) are injected with the test substance at 100 mg/kg intraperitoneally. Fifteen minutes after test substance administration the mice are challenged with 4 μCi intravenously of ^3 H-FNM (70-90 Ci/mole) in 200 μl physiological saline. Twenty minutes after ^3 H-FNM administration mice are sacrificed by decapitation, the forebrains rapidly excised (within 30 sec) and homogenized in 12 ml of icecold 25 mM KH2 PO4, pH 7.1, using an Ultra-Turrax homogenizer fitted with an N 10 shaft. Two aliquots of 1 ml are immediately filtered through Whatman GF/C glassfibre filters and washed with 2×5 ml of the above mentioned buffer. The amounts of radioactivity on the filters are determined by conventional scintillation counting. One group of untreated mice serves as controls. One to three mice are injected with 25 mg/kg clonazepam i.p. 30 minutes before ^3 H-FNM to determine the amount of non-specific ^3 H-FNM binding, which should be between 8-15% of total binding.
When doses of 100 mg/kg inhibit more than 50% of specific ^3 H-flunitrazepam binding; test substances are administered in doses, which are factors of 3.16 times lower than 100 mg/kg.
The ED50 for a test substance is defined as that dose which inhibits 50% of specific ^3 H-FNM binding. Specific binding is the amount of binding in controls minus the amount binding in clonazepam-treated mice.
The ED50 value is determined from dose response curves. If only one dose of test substance is administered the ED50 value is calculated as follows, provided that the inhibition of specific binding is within the range of 25-75%: [formula] where Co is specific binding in controls and Cx is specific binding in mice treated with test substance.

Assay [2] deals with pentylenetetrazol induced tonic convulsions. Nature of the assay: Pentazol tonic conv. mice i.p. (Procedure 401). In kind it is in vivo, mice (NMRI). The conditions noted are these: Mus musculus, ip, 0.5 h, i.p. 30 min before pentylenetetrazol 150 mg/kg s.c., tonic seizures, read-out: ED50 activity against pentazol induced convulsions, tonic. How it is done: III. Pentazol tonic conv. mice i.p. (Procedure 401)
Pentylenetetrazol induces clonic and tonic convulsions in mice at doses of 60-120 mg/kg s.c. The mechanism is unknown but seem to be due to some effects through the GABA receptor/benzodiazepine receptor/chloride ionophore complex. Antagonism of convulsions induced by maximal doses of pentylenetetrazol is considered predictive for drugs effective against petit mal epilepsia and anxiety.
150 mg/kg pentylenetetrazol (Pentazol, Sigma) dissolved in 0.9% NaCl is given by the subcutaneous route in volumes of 15 ml/kg to male or female NMRI mice weighing 20-25 g 30 min after an intraperitoneal injection of a test compound.
The ED50 value is calculated as the dose in μg/kg where seizures are inhibited in 50% of the animals using a computer program based on the method of Litchfield and Wilcoxon (1949).

Assay [3] concerns pentylenetetrazol induced clonic convulsions. Nature of the assay: Pentazol clonic conv. mice (i.p.) (Procedure 400). In kind it is in vivo, mice (NMRI). The conditions noted are these: Mus musculus, ip, 0.5 h, i.p. 30 min before pentylenetetrazol 150 mg/kg s.c., clonic seizures, read-out: ED50 activity against pentazol induced convulsions, clonic. How it is done:
II. Pentazol clonic conv. mice (i.p.) (Procedure 400)
Pentylenetetrazol induces clonic and tonic convulsions in mice at doses of 60-120 mg/kg s.c. The mechanism is unknown but seems to be due to some effects through the GABA receptor/benzodiazepine receptor/chloride ionophore complex. Antagonism of convulsions induced by maximal doses of pentylenetetrazol is considered predictive for drugs effective against petit mal epilepsia and anxiety.
150 mg/kg pentylenetetrazol dissolved in 0.9% NaCl is given by the subcutaneous route in volume of 15 ml/kg to male or female NMRI mice weighing 20-25 g 30 min after an intraperitoneal injection of a test compound.
The ED50 value is calculated as the dose in μg/kg at which seizures are inhibited in 50% of the animals using a computer program based on the method of Litchfield and Wilcoxon (1949).

As usually defined, the ED50 is the midpoint of the dose-response relation.

`CN1Cc2c(-c3noc(C4CC4)n3)ncn2-c2cccc(C(F)(F)F)c2C1=O`: the “ED50 binding in vivo” value in assay [1] was 0.01 mg/kg. Further, the 50% effective dose (ED50) in assay [2] was 0.003 mg/kg; in assay [3] it was 0.008 mg/kg.
Taken in the same sequence, the figures for `CC(C)c1noc(-c2ncn3c2CN(C)C(=O)c2c(Cl)cccc2-3)n1` were 0.2 mg/kg, 0.2 mg/kg and 0.6 mg/kg.
Consider `CN1Cc2c(-c3noc(C4CC4)n3)ncn2-c2cccc(F)c2C1=O`, for which, in assay [1], the “ED50 binding in vivo” value was 0.09 mg/kg. Moreover, the values for the 50% effective dose (ED50) in assay [2] and in assay [3] were 0.005 mg/kg and 0.02 mg/kg, respectively.
Regarding `CN1Cc2c(-c3nc(C4CC4)no3)ncn2-c2cccc(Cl)c2C1=O`, the “ED50 binding in vivo” value in assay [1] turned out to be 0.06 mg/kg. Moreover, the 50% effective dose (ED50) was 0.03 mg/kg in assay [2] and 0.09 mg/kg in assay [3].
Take `O=C1c2c(Cl)cccc2-n2cnc(-c3noc(C4CC4)n3)c2C2CCCN12` (stereo not drawn): the “ED50 binding in vivo” value in assay [1] was 0.96 mg/kg.
Turning to `O=C1c2c(Cl)cccc2-n2cnc(-c3nc(C4CC4)no3)c2C2CCCN12` (stereo not drawn), the “ED50 binding in vivo” value in assay [1] amounted to 0.23 mg/kg. Also, the median effective dose (ED50) in assay [2] turned out to be 0.08 mg/kg.
